Reference: US9187472B2 (AbbVie Inc., priority 2012, dated 2015)

The compounds below were run on PC3 cells (assay: NAMPT Cell Proliferation Assay). Settings: Homo sapiens, PC-3, 120 h, 5 days incubation, cell viability by Cell Titer Glo.
Assay type: cell-based
Outline: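 IC50 values derive from sigmoidal dose-response fits of percent inhibition of PC3 viability, measured by luminescence after 5 days of compound treatment. Cells (500/well, RPMI containing 10% heat-inactivated FBS) are allowed to attach overnight, and compounds are tested at 10-fold dilutions between 10 μM and 1×10^−5 μM.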

Row | IC50 [nM] | Compound
1 | 7.09 | CC(C)Cc1cc(-c2ccc(C(=O)NCc3ccn4ccnc4c3)s2)n(Cc2ccccc2)n1 [Example 907, 5-[1-benzyl-3-(2-methylpropyl)-1H-pyrazol-5-yl]-N-(imidazo[1,2-a]pyridin-7-ylmethyl)thiophene-2-carboxamide]
2 | 10.3 | C/C=C(\C)C(=O)N1CCC(c2ccc(C(=O)NCc3ccn4ccnc4c3)cc2)CC1 [Example 935, N-(imidazo[1,2-a]pyridin-7-ylmethyl)-4-{1-[(2E)-2-methylbut-2-enoyl]piperidin-4-yl}benzamide]
3 | 2.7 | CC1(Cn2cc(-c3ccc(C(=O)NCc4ccn5ccnc5c4)s3)cn2)CCN(CCN2CCNCC2)CC1 [Example 1163, N-(imidazo[1,2-a]pyridin-7-ylmethyl)-5-[1-({4-methyl-1-[2-(piperazin-1-yl)ethyl]piperidin-4-yl}methyl)-1H-pyrazol-4-yl]thiophene-2-carboxamide]
4 | 74 | CCOc1cc(C(=O)N2CCC(c3ccc(C(=O)NCc4ccn5ccnc5c4)cc3)CC2)ccn1 [Example 993, 4-{1-[(2-ethoxypyridin-4-yl)carbonyl]piperidin-4-yl}-N-(imidazo[1,2-a]pyridin-7-ylmethyl)benzamide]
5 | 10.9 | O=C(NCc1ccn2ccnc2c1)c1ccc(C2CCN(C(=O)c3ccc4c(c3)CCCO4)CC2)cc1 [Example 970, 4-[1-(3,4-dihydro-2H-chromen-6-ylcarbonyl)piperidin-4-yl]-N-(imidazo[1,2-a]pyridin-7-ylmethyl)benzamide]
6 | > 10000 | CC(C)=CC(=O)N1CCC(c2ccc(NC(=O)NCc3ccn4ccnc4c3)cc2)CC1 [Example 939, 1-(imidazo[1,2-a]pyridin-7-ylmethyl)-3-{4-[1-(3-methylbut-2-enoyl)piperidin-4-yl]phenyl}urea]
7 | 37.3 | Cc1cc(C(=O)N2CCC(c3ccc(C(=O)NCc4ccn5ccnc5c4)cc3)CC2)cnc1C [Example 1007, 4-{1-[(5,6-dimethylpyridin-3-yl)carbonyl]piperidin-4-yl}-N-(imidazo[1,2-a]pyridin-7-ylmethyl)benzamide]
8 | > 10000 | CC(C)C1CCCN1C(=O)c1ccc(C(=O)NCc2ccn3ccnc3c2)cc1 (centres unmarked) [Example 910, N-(imidazo[1,2-a]pyridin-7-ylmethyl)-4-{[2-(propan-2-yl)pyrrolidin-1-yl]carbonyl}benzamide]
9 | 28.3 | N#Cc1ccc(F)c(C(=O)N2CCC(c3ccc(C(=O)NCc4ccn5ccnc5c4)cc3)CC2)c1 [Example 985, 4-[1-(5-cyano-2-fluorobenzoyl)piperidin-4-yl]-N-(imidazo[1,2-a]pyridin-7-ylmethyl)benzamide]
10 | 8.32 | N#Cc1ccccc1C(=O)N1CCC(c2ccc(C(=O)NCc3ccc4ncnn4c3)s2)CC1 [Example 852, 5-[1-(2-cyanobenzoyl)piperidin-4-yl]-N-([1,2,4]triazolo[1,5-a]pyridin-6-ylmethyl)thiophene-2-carboxamide]
11 | 8.42 | O=C(NCc1ccn2ccnc2c1)Nc1ccc(C2CCN(C(=O)c3cnc(C4CC4)s3)CC2)cc1 [Example 1121, 1-(4-{1-[(2-cyclopropyl-1,3-thiazol-5-yl)carbonyl]piperidin-4-yl}phenyl)-3-(imidazo[1,2-a]pyridin-7-ylmethyl)urea]
12 | 27.5 | CC(C(=O)N1CCC(c2ccc(C(=O)NCc3ccn4ccnc4c3)cc2)CC1)n1ccc(C2CC2)n1 (centres unmarked) [Example 1106, 4-{1-[2-(3-cyclopropyl-1H-pyrazol-1-yl)propanoyl]piperidin-4-yl}-N-(imidazo[1,2-a]pyridin-7-ylmethyl)benzamide]
13 | 6.96 | CC(C)c1ncncc1C(=O)N1CCC(c2ccc(C(=O)NCc3ccn4ccnc4c3)cc2)CC1 [Example 1104, N-(imidazo[1,2-a]pyridin-7-ylmethyl)-4-(1-{[4-(propan-2-yl)pyrimidin-5-yl]carbonyl}piperidin-4-yl)benzamide]
14 | 0.886 | O=C(NCc1ccc2ncnn2c1)c1ccc(C2CCN(C(=O)c3ccccc3F)CC2)s1 [Example 831, 5-[1-(2-fluorobenzoyl)piperidin-4-yl]-N-([1,2,4]triazolo[1,5-a]pyridin-6-ylmethyl)thiophene-2-carboxamide]
15 | 80.9 | Cc1cccc(C(=O)N2CCC(c3ccc(C(=O)NCc4ccn5ccnc5c4)cc3)CC2)c1O [Example 937, 4-[1-(2-hydroxy-3-methylbenzoyl)piperidin-4-yl]-N-(imidazo[1,2-a]pyridin-7-ylmethyl)benzamide]
16 | 60.1 | O=C(NCc1ccn2ccnc2c1)c1ccc(C2CCN(C(=O)c3ccc4ccncc4c3)CC2)cc1 [Example 988, N-(imidazo[1,2-a]pyridin-7-ylmethyl)-4-[1-(isoquinolin-7-ylcarbonyl)piperidin-4-yl]benzamide]
17 | 10.8 | O=C(Cc1ccn2ccnc2c1)Nc1ccc(C2CCN(C(=O)c3ccc(F)cc3F)CC2)cc1 [Example 902, N-{4-[1-(2,4-difluorobenzoyl)piperidin-4-yl]phenyl}-2-(imidazo[1,2-a]pyridin-7-yl)acetamide]
18 | 8.27 | N#Cc1cnc(C(=O)N2CCC(c3ccc(C(=O)NCc4ccn5ccnc5c4)cc3)CC2)c(Cl)c1 [Example 1089, 4-{1-[(3-chloro-5-cyanopyridin-2-yl)carbonyl]piperidin-4-yl}-N-(imidazo[1,2-a]pyridin-7-ylmethyl)benzamide]

Row | IC50 [nM] | Compound
19 | 42.5 | CC(C)(C)Cc1nnc(-c2ccc(NC(=O)Cc3ccn4ccnc4c3)cc2)o1 [Example 911, N-{4-[5-(2,2-dimethylpropyl)-1,3,4-oxadiazol-2-yl]phenyl}-2-(imidazo[1,2-a]pyridin-7-yl)acetamide]
20 | 5.39 | O=C(NCc1ccn2ccnc2c1)Nc1ccc(C2CCN(C(=O)C(CO)c3ccccc3)CC2)cc1 (centres unmarked) [Example 948, 1-{4-[1-(3-hydroxy-2-phenylpropanoyl)piperidin-4-yl]phenyl}-3-(imidazo[1,2-a]pyridin-7-ylmethyl)urea]
21 | 7.61 | CC(C)C(=O)N1CCC(c2ccc(NC(=O)NCc3ccn4ccnc4c3)c(F)c2)CC1 [Example 1078, 1-{2-fluoro-4-[1-(2-methylpropanoyl)piperidin-4-yl]phenyl}-3-(imidazo[1,2-a]pyridin-7-ylmethyl)urea]
22 | 2.09 | CC(Oc1ccccc1)C(=O)N1CCC(c2ccc(C(=O)NCc3ccn4ccnc4c3)cc2)CC1 (centres unmarked) [Example 930, N-(imidazo[1,2-a]pyridin-7-ylmethyl)-4-[1-(2-phenoxypropanoyl)piperidin-4-yl]benzamide]
23 | 20.1 | CC(C)c1nc(C(=O)N2CCC(c3ccc(C(=O)NCc4ccn5ccnc5c4)cc3)CC2)cs1 [Example 1108, N-(imidazo[1,2-a]pyridin-7-ylmethyl)-4-(1-{[2-(propan-2-yl)-1,3-thiazol-4-yl]carbonyl}piperidin-4-yl)benzamide]
24 | 657 | O=C(CC1CCCC1)Nc1ccc(C(=O)NCc2ccc3nccn3n2)cc1 [Example 856, 4-[(cyclopentylacetyl)amino]-N-(imidazo[1,2-b]pyridazin-6-ylmethyl)benzamide]
25 | 6.79 | CCC(CC)C(=O)N1CCC(c2ccc(C(=O)NCc3ccn4ccnc4c3)cc2)CC1 [Example 917, 4-[1-(2-ethylbutanoyl)piperidin-4-yl]-N-(imidazo[1,2-a]pyridin-7-ylmethyl)benzamide]
26 | 0.205 | CCn1ncc(Cl)c1C(=O)N1CCC(c2ccc(NC(=O)NCc3ccn4ccnc4c3)cc2)CC1 [Example 1047, 1-(4-{1-[(4-chloro-1-ethyl-1H-pyrazol-5-yl)carbonyl]piperidin-4-yl}phenyl)-3-(imidazo[1,2-a]pyridin-7-ylmethyl)urea]
27 | 18 | CC(=O)c1ccccc1C(=O)N1CCC(c2ccc(C(=O)NCc3ccn4ccnc4c3)cc2)CC1 [Example 924, 4-[1-(2-acetylbenzoyl)piperidin-4-yl]-N-(imidazo[1,2-a]pyridin-7-ylmethyl)benzamide]
28 | 5.77 | O=C(NCc1ccn2ccnc2c1)c1ccc(C2CCN(C(=O)N3CCCCC3)CC2)cc1 [Example 1068, N-(imidazo[1,2-a]pyridin-7-ylmethyl)-4-[1-(piperidin-1-ylcarbonyl)piperidin-4-yl]benzamide]
29 | 0.625 | O=C(NCc1cn2ccnc2cn1)c1ccc(C2CCN(C(=O)c3ccccc3F)CC2)s1 [Example 827, 5-[1-(2-fluorobenzoyl)piperidin-4-yl]-N-(imidazo[1,2-a]pyrazin-6-ylmethyl)thiophene-2-carboxamide]
30 | 1.68 | Cc1nn(C)c(C(=O)N2CCC(c3ccc(C(=O)NCc4ccn5ccnc5c4)cc3)CC2)c1Cl [Example 1087, 4-{1-[(4-chloro-1,3-dimethyl-1H-pyrazol-5-yl)carbonyl]piperidin-4-yl}-N-(imidazo[1,2-a]pyridin-7-ylmethyl)benzamide]
31 | 8.05 | O=C(NCc1ccn2ccnc2c1)Nc1ccc(C2CCN(C(=O)c3cc4occc4s3)CC2)cc1 [Example 1129, 1-(imidazo[1,2-a]pyridin-7-ylmethyl)-3-{4-[1-(thieno[3,2-b]furan-5-ylcarbonyl)piperidin-4-yl]phenyl}urea]
32 | 2.65 | COC1CCC(C(=O)N2CCC(c3ccc(C(=O)NCc4ccn5ccnc5c4)cc3)CC2)CC1 (centres unmarked) [Example 977, N-(imidazo[1,2-a]pyridin-7-ylmethyl)-4-{1-[(4-methoxycyclohexyl)carbonyl]piperidin-4-yl}benzamide]
33 | 74.7 | CCc1nc(C(=O)N2CCC(c3ccc(C(=O)NCc4ccn5ccnc5c4)cc3)CC2)cs1 [Example 1005, 4-{1-[(2-ethyl-1,3-thiazol-4-yl)carbonyl]piperidin-4-yl}-N-(imidazo[1,2-a]pyridin-7-ylmethyl)benzamide]
34 | 0.414 | O=C(Cc1ccc2nccn2c1)Nc1ccc(NC(=O)CC2CCCC2)cc1 [Example 854, 2-cyclopentyl-N-{4-[(imidazo[1,2-a]pyridin-6-ylacetyl)amino]phenyl}acetamide]
35 | 8.36 | O=C(NCc1ccn2ccnc2c1)Nc1ccc(C2CCN(C(=O)[C@@H]3COc4ccccc4O3)CC2)cc1 [Example 1012, 1-(4-{1-[(2S)-2,3-dihydro-1,4-benzodioxin-2-ylcarbonyl]piperidin-4-yl}phenyl)-3-(imidazo[1,2-a]pyridin-7-ylmethyl)urea]
